Converted amounts (≈) assume the structure as drawn.
Tests used:
Escherichia coli [1] = assay: Antibacterial activity expressed as MIC value was determined on Escherichia coli A-20895 organism; assay type: functional
Escherichia coli [2] = assay: Antibacterial activity expressed as MIC value was determined on Escherichia coli A-21218 organism; assay type: functional
Escherichia coli [3] = assay: Antibacterial activity expressed as MIC value was determined on Escherichia coli A-22045 organism; assay type: functional
Proteus mirabilis = assay: Antibacterial activity expressed as MIC value was determined on Proteus mirabilis A-9900 organism; assay type: functional
Staphylococcus aureus [4] = assay: Antibacterial activity expressed as MIC value was determined on Staphylococcus aureus A-21978 organism; assay type: functional
Klebsiella pneumoniae = assay: Antibacterial activity expressed as MIC value was determined on Klebsiella pneumonia A-20468 organism; assay type: functional
Escherichia coli [5] = assay: Antibacterial activity expressed as MIC value was determined on Escherichia coli A-20683 organism; assay type: functional
Pseudomonas aeruginosa [6] = assay: Antibacterial activity expressed as MIC value was determined on Pseudomonas aeruginosa A-20717 organism; assay type: functional
Staphylococcus aureus [7] = assay: Antibacterial activity expressed as MIC value was determined on Staphylococcus aureus A-22231 organism; assay type: functional
Providencia stuartii [8] = assay: Antibacterial activity expressed as MIC value was determined on Proteus stuartii A-21210 organism; assay type: functional
Pseudomonas aeruginosa [9] = assay: Antibacterial activity expressed as MIC value was determined on Pseudomonas aeruginosa A-20897 organism; assay type: functional
Pseudomonas aeruginosa [10] = assay: Antibacterial activity expressed as MIC value was determined on Pseudomonas aeruginosa A-9834A organismA-; assay type: functional, organism-based
Staphylococcus aureus [11] = assay: Antibacterial activity expressed as MIC value was determined on Staphylococcus aureus A-9537 organism; assay type: functional
Staphylococcus aureus [12] = assay: Antibacterial activity expressed as MIC value was determined on; assay type: functional, organism-based
Providencia rettgeri [13] = assay: Antibacterial activity expressed as MIC value was determined on Proteus rettgeri A-21207 organism; assay type: functional
Pseudomonas aeruginosa [14] = assay: Antibacterial activity expressed as MIC value was determined on Pseudomonas aeruginosa A-20741 organism; assay type: functional
Escherichia coli [15] = assay: Antibacterial activity expressed as MIC value was determined on Escherichia coli A-20697 organism; assay type: functional
Providencia stuartii [16] = assay: Antibacterial activity expressed as MIC value was determined on Proteus stuartii A-20894 organism; assay type: functional
Staphylococcus aureus [17] = assay: Antibacterial activity expressed as MIC value was determined on Staphylococcus aureus A-20240 organism; assay type: functional
Staphylococcus aureus [18] = assay: Antibacterial activity expressed as MIC value was determined on Staphylococcus aureus A-22210 organism; assay type: functional
Escherichia coli [19] = assay: Antibacterial activity expressed as MIC value was determined on Escherichia coli A-20732 organism; assay type: functional
Serratia marcescens = assay: Antibacterial activity expressed as MIC value was determined on Serratia marcescens A-20019 organism; assay type: functional
Pseudomonas aeruginosa [20] = assay: Antibacterial activity expressed as MIC value was determined on Pseudomonas aeruginosa A-21294 organism; assay type: functional
Escherichia coli [21] = assay: Antibacterial activity expressed as MIC value was determined on Escherichia coli A-9632 organism; assay type: functional
Providencia rettgeri [22] = assay: (§1) Antibacterial activity expressed as MIC value was determined on Proteus rettgeri A-9637 organism; assay type: functional
Pseudomonas aeruginosa [23] = assay: Antibacterial activity expressed as MIC value was determined on Pseudomonas aeruginosa A-21509 organism; assay type: functional
Pseudomonas aeruginosa [24] = assay: Antibacterial activity expressed as MIC value was determined on Pseudomonas aeruginosa A-20601; assay type: functional, organism-based
Pseudomonas aeruginosa [25] = assay: Antibacterial activity expressed as MIC value was determined on Pseudomonas aeruginosa A-22233 organism; assay type: functional
Pseudomonas aeruginosa [26] = assay: Antibacterial activity expressed as MIC value was determined on Pseudomonas aeruginosa A-21508 organism; assay type: functional
Providencia rettgeri [27] = assay: as §1; assay type: functional; remark: listed apart in the source
Escherichia coli [28] = assay: Antibacterial activity expressed as MIC value was determined on Escherichia coli A-22356 organism; assay type: functional
Pseudomonas aeruginosa [29] = assay: Antibacterial activity expressed as MIC value was determined on Pseudomonas aeruginosa A-20653 organism; assay type: functional
Enterobacter cloacae [30] = assay: Antibacterial activity expressed as MIC value was determined on Enterobacter cloacae A-9656 organism; assay type: functional
Enterobacter cloacae [31] = assay: Antibacterial activity expressed as MIC value was determined on Enterobacter cloacae A-21136 organism; assay type: functional
Pseudomonas aeruginosa [32] = assay: Antibacterial activity expressed as MIC value was determined on Pseudomonas aeruginosa A-20601 organism; assay type: functional
Enterobacter cloacae [33] = assay: Antibacterial activity expressed as MIC value was determined on Enterobacter cloacae A-20364 organism; assay type: functional
Staphylococcus aureus [34] = assay: Antibacterial activity expressed as MIC value was determined on Staphylococcus aureus A-22058 organism; assay type: functional
Pseudomonas aeruginosa [35] = assay: Antibacterial activity expressed as MIC value was determined on Pseudomonas aeruginosa A-9834A organism; assay type: functional
Escherichia coli [36] = assay: Antibacterial activity expressed as MIC value was determined on Escherichia coli A-20665 organism; assay type: functional
Enterobacter cloacae [37] = assay: Antibacterial activity expressed as MIC value was determined on Enterobacter cloacae A-21006 organism; assay type: functional
Providencia rettgeri [38] = assay: ntibacterial activity expressed as MIC value was determined on Proteus rettgeri A-21207 organism; assay type: functional
Escherichia coli [39] = assay: Antibacterial activity expressed as MIC value was determined on Escherichia coli A-20895; assay type: functional

Compound | MIC (Escherichia coli [2]) [µg/mL] | MIC (Escherichia coli [3]) [µg/mL] | MIC (Proteus mirabilis) [µg/mL] | MIC (Staphylococcus aureus [4]) [µg/mL] | MIC (Klebsiella pneumoniae) [µg/mL] | MIC (Escherichia coli [5]) [µg/mL] | MIC (Pseudomonas aeruginosa [6]) [µg/mL] | MIC (Staphylococcus aureus [7]) [µg/mL] | MIC (Providencia stuartii [8]) [µg/mL] | MIC (Pseudomonas aeruginosa [9]) [µg/mL] | MIC (Staphylococcus aureus [11]) [µg/mL] | MIC (Pseudomonas aeruginosa [14]) [µg/mL] | MIC (Escherichia coli [15]) [µg/mL] | MIC (Providencia stuartii [16]) [µg/mL] | MIC (Staphylococcus aureus [17]) [µg/mL] | MIC (Staphylococcus aureus [18]) [µg/mL] | MIC (Escherichia coli [19]) [µg/mL] | MIC (Serratia marcescens) [µg/mL] | MIC (Pseudomonas aeruginosa [20]) [µg/mL] | MIC (Escherichia coli [21]) [µg/mL] | other results
GENTAMICIN | 0.25 | 63 | 1 | 0.25 | 0.25 | 32 | 4 | 0.13 | 1 | > 125 | 0.06 | > 125 | 0.25 | 125 | 0.13 | 32 | 16 | 1 | 1 | 0.25 | MIC (Escherichia coli [1]): 32 µg/mL; MIC (Pseudomonas aeruginosa [10]): 0.25 µg/mL; MIC (Staphylococcus aureus [12]): 0.13 µg/mL; MIC (Providencia rettgeri [13]): 8 µg/mL; MIC (Providencia rettgeri [22]): 0.06 µg/mL; MIC (Pseudomonas aeruginosa [23]): 16 µg/mL; MIC (Pseudomonas aeruginosa [24]): > 125 µg/mL
CC1(C)S[C@@H]2[C@H](NC(=O)C(C(=O)O)c3ccccc3)C(=O)N2[C@H]1C(=O)O.NC[C@H]1O[C@H](O[C@H]2[C@H](O)[C@@H](O[C@H]3O[C@H](CO)[C@@H](O)[C@H](N)[C@H]3O)[C@H](N)C[C@@H]2N)[C@H](O)[C@@H](O)[C@@H]1O | > 250 | > 250 | > 250 | > 250 | > 250 | > 250 | > 250 | > 250 | > 250 | > 250 | > 250 | > 250 | > 250 | > 250 | > 250 | > 250 | > 250 | > 250 | > 250 | > 250 | MIC (Pseudomonas aeruginosa [25]): > 250 µg/mL; MIC (Pseudomonas aeruginosa [26]): > 250 µg/mL; MIC (Escherichia coli [1]): > 250 µg/mL; MIC (Providencia rettgeri [27]): 250 µg/mL; MIC (Escherichia coli [28]): > 250 µg/mL; MIC (Pseudomonas aeruginosa [29]): > 250 µg/mL; MIC (Enterobacter cloacae [30]): > 250 µg/mL; MIC (Enterobacter cloacae [31]): > 250 µg/mL; MIC (Pseudomonas aeruginosa [32]): > 250 µg/mL; MIC (Enterobacter cloacae [33]): > 250 µg/mL; MIC (Staphylococcus aureus [34]): > 250 µg/mL; MIC (Providencia rettgeri [13]): > 250 µg/mL; MIC (Pseudomonas aeruginosa [35]): > 250 µg/mL; MIC (Escherichia coli [36]): > 250 µg/mL; MIC (Pseudomonas aeruginosa [23]): > 250 µg/mL; MIC (Enterobacter cloacae [37]): > 250 µg/mL
CC1(C)S[C@@H]2[C@H](NC(=O)C(C(=O)O)c3ccccc3)C(=O)N2[C@H]1C(=O)O.NC[C@H]1O[C@H](O[C@H]2[C@H](O)[C@@H](O[C@H]3O[C@H](CO)[C@@H](O)[C@H](N)[C@H]3O)[C@H](N)C[C@@H]2N)[C@H](N)C[C@@H]1O | > 250 | > 250 | > 250 | > 250 | > 250 | > 250 | > 250 | 63 | > 250 | > 250 | 63 | > 250 | > 250 | > 250 | > 250 | > 250 | > 250 | 250 | > 250 | > 250 | MIC (Pseudomonas aeruginosa [25]): > 250 µg/mL; MIC (Pseudomonas aeruginosa [26]): 250 µg/mL; MIC (Escherichia coli [1]): > 250 µg/mL; MIC (Providencia rettgeri [27]): 125 µg/mL; MIC (Escherichia coli [28]): > 250 µg/mL; MIC (Pseudomonas aeruginosa [29]): 250 µg/mL; MIC (Enterobacter cloacae [30]): > 250 µg/mL; MIC (Enterobacter cloacae [31]): > 250 µg/mL; MIC (Pseudomonas aeruginosa [32]): > 250 µg/mL; MIC (Enterobacter cloacae [33]): > 250 µg/mL; MIC (Staphylococcus aureus [34]): > 250 µg/mL; MIC (Providencia rettgeri [13]): > 250 µg/mL; MIC (Pseudomonas aeruginosa [35]): 250 µg/mL; MIC (Escherichia coli [36]): > 250 µg/mL; MIC (Pseudomonas aeruginosa [23]): > 250 µg/mL; MIC (Enterobacter cloacae [37]): > 250 µg/mL
CC1(C)S[C@@H]2[C@H](NC(=O)C(C(=O)O)c3ccccc3)C(=O)N2[C@H]1C(=O)O (stereo not given in full) [CARBENICILLIN] | 32 (≈ 84.6 µM) | 32 (≈ 84.6 µM) | 0.5 (≈ 1.32 µM) | > 125 | > 125 | > 125 | > 125 | 2 (≈ 5.29 µM) | 1 (≈ 2.64 µM) | > 125 | 1 (≈ 2.64 µM) | 125 (≈ 330 µM) | 32 (≈ 84.6 µM) | 8 (≈ 21.1 µM) | 8 (≈ 21.1 µM) | > 125 | > 125 | 16 (≈ 42.3 µM) | > 125 | 8 (≈ 21.1 µM) | MIC (Pseudomonas aeruginosa [25]): > 125 µg/mL; MIC (Pseudomonas aeruginosa [26]): > 125 µg/mL; MIC (Providencia rettgeri [27]): 0.5 µg/mL (≈ 1.32 µM); MIC (Escherichia coli [28]): 4 µg/mL (≈ 10.6 µM); MIC (Pseudomonas aeruginosa [29]): 125 µg/mL (≈ 330 µM); MIC (Enterobacter cloacae [30]): 32 µg/mL (≈ 84.6 µM); MIC (Enterobacter cloacae [31]): > 125 µg/mL; MIC (Pseudomonas aeruginosa [32]): 125 µg/mL (≈ 330 µM); MIC (Providencia rettgeri [38]): 16 µg/mL (≈ 42.3 µM); MIC (Escherichia coli [39]): 63 µg/mL (≈ 166 µM); MIC (Enterobacter cloacae [33]): > 125 µg/mL; MIC (Staphylococcus aureus [34]): 4 µg/mL (≈ 10.6 µM); MIC (Pseudomonas aeruginosa [35]): 32 µg/mL (≈ 84.6 µM); MIC (Escherichia coli [36]): 8 µg/mL (≈ 21.1 µM); MIC (Pseudomonas aeruginosa [23]): > 125 µg/mL; MIC (Enterobacter cloacae [37]): > 125 µg/mL
